In US20260207585A1, “METHODS AND COMPOSITIONS FOR THE TREATMENT OF PARKINSON'S DISEASE, HUNTINGTON'S DISEASE, AMYOTROPHIC LATERAL SCLEROSIS, AND LEARNING DISORDERS” (Cedars-Sinai Medical Center, priority 2022, published 2026):
Where two headings read alike, the source gives them in different places.

Key:
[1] = target: T1, SET8 (Homo sapiens, UniProt Q9NQR1); assay: Methyltransferase inhibition panel: SET8; format: biochemical
T1 sequence (Q9NQR1 1-393): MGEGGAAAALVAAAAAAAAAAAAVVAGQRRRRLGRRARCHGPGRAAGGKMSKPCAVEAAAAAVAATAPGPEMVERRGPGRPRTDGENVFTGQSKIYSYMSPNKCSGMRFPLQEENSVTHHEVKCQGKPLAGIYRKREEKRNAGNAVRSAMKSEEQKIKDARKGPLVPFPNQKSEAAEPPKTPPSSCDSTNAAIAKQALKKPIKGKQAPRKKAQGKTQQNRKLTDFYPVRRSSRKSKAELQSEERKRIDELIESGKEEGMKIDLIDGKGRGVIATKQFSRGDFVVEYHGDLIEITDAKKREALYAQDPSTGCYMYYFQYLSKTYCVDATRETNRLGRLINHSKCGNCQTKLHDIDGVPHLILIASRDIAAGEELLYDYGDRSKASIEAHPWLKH
Protocol: (§1) The ability of ETP69 to inhibit methyltransferases was tested.

[2] = target: T2, NSD3 (Homo sapiens, UniProt Q9BZ95); assay: Methyltransferase inhibition panel: NSD3; format: biochemical
T2 sequence (Q9BZ95 1-1437): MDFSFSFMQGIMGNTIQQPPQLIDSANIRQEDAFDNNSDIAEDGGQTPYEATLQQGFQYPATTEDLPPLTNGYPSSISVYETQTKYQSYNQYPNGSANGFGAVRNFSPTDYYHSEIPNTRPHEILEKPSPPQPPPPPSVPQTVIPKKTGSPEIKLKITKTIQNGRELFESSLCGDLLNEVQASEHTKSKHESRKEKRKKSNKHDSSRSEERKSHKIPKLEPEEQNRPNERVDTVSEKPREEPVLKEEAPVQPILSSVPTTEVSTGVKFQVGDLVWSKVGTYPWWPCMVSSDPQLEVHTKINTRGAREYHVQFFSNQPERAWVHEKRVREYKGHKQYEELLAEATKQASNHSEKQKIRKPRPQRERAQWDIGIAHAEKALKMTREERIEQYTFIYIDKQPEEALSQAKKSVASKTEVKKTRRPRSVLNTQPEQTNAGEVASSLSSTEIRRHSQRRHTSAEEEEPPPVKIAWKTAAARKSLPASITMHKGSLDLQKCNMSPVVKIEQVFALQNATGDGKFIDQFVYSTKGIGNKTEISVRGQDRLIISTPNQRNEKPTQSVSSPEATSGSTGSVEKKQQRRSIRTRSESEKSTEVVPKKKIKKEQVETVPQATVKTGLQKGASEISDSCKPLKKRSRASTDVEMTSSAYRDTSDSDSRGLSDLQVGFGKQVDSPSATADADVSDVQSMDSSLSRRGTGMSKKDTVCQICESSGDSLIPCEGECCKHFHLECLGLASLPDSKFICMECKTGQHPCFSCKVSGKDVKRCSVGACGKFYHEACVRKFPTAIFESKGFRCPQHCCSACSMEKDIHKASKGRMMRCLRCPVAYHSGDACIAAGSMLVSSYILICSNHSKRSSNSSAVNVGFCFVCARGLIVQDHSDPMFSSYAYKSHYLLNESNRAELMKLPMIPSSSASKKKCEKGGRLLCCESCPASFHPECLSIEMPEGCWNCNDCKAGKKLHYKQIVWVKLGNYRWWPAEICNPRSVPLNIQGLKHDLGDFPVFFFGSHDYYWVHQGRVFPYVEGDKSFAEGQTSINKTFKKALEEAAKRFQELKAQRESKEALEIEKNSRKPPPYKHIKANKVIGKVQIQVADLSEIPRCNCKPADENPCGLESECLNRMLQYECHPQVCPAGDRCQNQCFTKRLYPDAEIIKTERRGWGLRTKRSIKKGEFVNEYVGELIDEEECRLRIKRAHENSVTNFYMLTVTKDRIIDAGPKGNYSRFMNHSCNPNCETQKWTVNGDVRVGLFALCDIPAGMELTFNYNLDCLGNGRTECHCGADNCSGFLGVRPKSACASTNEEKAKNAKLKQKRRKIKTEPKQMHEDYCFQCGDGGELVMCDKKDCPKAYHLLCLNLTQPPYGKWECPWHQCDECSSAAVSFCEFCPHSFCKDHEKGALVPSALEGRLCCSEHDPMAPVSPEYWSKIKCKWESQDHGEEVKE
Protocol: as §1

[3] = target: T3, NRMT1 (Homo sapiens, UniProt Q9BV86); assay: Methyltransferase inhibition panel: NRMT1; format: biochemical
T3 sequence (Q9BV86 1-223): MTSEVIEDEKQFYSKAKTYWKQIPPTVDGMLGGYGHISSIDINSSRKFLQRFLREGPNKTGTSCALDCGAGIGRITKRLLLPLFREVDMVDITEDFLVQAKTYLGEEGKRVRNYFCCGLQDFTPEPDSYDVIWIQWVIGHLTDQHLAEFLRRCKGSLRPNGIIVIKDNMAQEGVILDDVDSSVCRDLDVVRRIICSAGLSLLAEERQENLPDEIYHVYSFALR
Protocol: as §1

[4] = target: EZH1 Complex (Homo sapiens, UniProt Q92800); assay: Methyltransferase inhibition panel: EZH1 Complex; format: biochemical; conditions: NT1721 20 μM; substrate Core Histone 0.05 mg/mL
Protocol: as §1

[5] = system: wildtype and AD model (APP/PS1-transgenic) mice; assay: Y-Maze test; format: in vivo
Protocol: The effects of single and repeated ETP69 injections in mice were tested. The experimental timeline is depicted in FIG. 5. Three parallel injection conditions were tested: a single ETP69 condition, a boosted ETP69 injection, and repeated ETP69 injections. The single injection mice received one injection of ETP69 or DMSO at Day 0. The mice that received a boosted injection received one injection of ETP69 or DMSO at day 0 and one injection at day 9. The mice that received repeated injections received 11 injections of ETP69 or DMSO at day 0 or day 9. Both wildtype and AD model (APP/PS1-transgenic) mice were tested.
Treatment with ETP69 restored CNS-related locomotor, visual, cognitive functions (FIGS. 6A-611). First, the effects of ETP69 on cognitive and visual protection was tested using the Y-Maze test.

[6] = target: PRMT6 (Homo sapiens, UniProt Q96LA8); assay: Methyltransferase inhibition panel: PRMT6; format: biochemical; conditions: NT1721 20 μM, substrate GST-GAR 5 μM
Protocol: as §1

[7] = target: SUV420H1TV2 (Homo sapiens, UniProt Q4FZB7); assay: Methyltransferase inhibition panel: SUV420H1TV2; format: biochemical
Protocol: as §1

[8] = read-out: Enzyme % Activity (relative to DMSO controls) Data 1
[9] = read-out: Enzyme % Activity (relative to DMSO controls) Data 2
[10] = NT1721 20 μM, substrate Nucleosomes 0.05 mg/mL

Sequence of SUV420H1TV2 (Q4FZB7 1-393 isoform Q4FZB7-2): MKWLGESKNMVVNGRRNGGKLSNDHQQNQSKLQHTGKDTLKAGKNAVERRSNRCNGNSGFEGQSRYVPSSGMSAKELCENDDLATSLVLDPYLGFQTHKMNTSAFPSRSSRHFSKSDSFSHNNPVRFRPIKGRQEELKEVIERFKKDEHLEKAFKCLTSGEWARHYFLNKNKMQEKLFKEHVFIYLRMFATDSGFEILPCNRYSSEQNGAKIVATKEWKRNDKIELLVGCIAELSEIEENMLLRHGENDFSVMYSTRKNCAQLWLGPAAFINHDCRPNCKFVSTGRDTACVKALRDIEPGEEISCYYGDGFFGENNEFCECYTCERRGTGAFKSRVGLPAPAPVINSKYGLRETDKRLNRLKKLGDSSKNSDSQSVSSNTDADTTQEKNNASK
Sequence of PRMT6 (Q96LA8 whole entry): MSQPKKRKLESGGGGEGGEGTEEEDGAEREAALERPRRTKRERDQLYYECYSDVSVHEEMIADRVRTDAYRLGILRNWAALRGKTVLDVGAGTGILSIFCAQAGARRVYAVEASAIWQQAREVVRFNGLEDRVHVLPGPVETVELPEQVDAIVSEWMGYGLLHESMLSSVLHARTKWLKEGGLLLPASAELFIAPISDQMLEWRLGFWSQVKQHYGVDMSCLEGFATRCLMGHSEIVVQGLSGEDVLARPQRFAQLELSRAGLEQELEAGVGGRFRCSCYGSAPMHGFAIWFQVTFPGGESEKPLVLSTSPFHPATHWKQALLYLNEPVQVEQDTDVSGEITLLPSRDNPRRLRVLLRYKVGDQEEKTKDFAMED
Sequence of EZH1 Complex (Q92800 whole entry): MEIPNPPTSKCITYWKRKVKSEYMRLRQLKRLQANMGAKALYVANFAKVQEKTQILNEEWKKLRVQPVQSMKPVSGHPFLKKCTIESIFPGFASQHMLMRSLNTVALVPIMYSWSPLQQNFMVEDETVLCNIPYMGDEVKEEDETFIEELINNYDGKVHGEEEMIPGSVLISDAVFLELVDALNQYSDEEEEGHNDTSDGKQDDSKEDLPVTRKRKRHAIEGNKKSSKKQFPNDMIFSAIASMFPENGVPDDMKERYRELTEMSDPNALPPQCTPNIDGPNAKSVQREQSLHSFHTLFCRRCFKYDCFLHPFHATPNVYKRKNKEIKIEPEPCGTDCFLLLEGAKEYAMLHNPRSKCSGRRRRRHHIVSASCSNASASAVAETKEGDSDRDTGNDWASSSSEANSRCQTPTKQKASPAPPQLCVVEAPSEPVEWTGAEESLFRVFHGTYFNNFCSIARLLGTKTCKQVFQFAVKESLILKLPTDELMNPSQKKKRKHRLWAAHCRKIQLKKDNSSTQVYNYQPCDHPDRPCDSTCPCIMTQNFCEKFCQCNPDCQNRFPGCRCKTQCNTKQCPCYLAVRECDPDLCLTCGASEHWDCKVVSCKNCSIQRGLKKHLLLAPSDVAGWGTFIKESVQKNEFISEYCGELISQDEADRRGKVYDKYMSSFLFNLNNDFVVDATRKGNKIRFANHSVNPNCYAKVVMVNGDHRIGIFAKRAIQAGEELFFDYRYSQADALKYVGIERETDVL
Sequence of EZH1 Complex (O75530 whole entry partner): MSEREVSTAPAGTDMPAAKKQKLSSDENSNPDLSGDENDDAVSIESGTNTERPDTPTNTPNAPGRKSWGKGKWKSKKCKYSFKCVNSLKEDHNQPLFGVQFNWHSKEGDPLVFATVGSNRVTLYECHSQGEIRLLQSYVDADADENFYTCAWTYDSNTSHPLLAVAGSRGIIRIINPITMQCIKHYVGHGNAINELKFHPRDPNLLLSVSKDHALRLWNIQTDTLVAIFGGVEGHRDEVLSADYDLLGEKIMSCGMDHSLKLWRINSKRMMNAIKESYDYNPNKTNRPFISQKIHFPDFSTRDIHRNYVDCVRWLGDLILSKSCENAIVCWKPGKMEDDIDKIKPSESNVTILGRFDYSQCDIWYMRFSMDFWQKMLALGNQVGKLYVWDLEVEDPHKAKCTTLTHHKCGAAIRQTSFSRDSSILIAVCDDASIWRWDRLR
Sequence of EZH1 Complex (Q15022 whole entry partner): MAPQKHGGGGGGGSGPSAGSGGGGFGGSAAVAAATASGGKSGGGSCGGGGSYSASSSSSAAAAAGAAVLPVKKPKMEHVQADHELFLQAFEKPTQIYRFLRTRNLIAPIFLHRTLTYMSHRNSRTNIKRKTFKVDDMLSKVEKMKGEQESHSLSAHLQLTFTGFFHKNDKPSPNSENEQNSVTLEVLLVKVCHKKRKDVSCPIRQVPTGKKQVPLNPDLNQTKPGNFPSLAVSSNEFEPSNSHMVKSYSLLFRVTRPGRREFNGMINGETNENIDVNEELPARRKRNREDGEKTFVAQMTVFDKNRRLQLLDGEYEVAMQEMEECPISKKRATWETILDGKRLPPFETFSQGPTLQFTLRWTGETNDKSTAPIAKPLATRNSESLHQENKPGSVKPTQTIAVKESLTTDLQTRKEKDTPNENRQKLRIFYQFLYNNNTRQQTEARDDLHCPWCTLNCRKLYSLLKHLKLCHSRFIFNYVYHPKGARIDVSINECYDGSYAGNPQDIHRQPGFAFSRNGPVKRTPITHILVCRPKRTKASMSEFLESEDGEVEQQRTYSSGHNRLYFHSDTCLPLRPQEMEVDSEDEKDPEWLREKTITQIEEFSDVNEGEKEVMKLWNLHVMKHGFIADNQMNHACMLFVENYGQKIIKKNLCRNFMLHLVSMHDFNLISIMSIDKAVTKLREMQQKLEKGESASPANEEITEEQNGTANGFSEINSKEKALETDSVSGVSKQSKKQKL
Sequence of EZH1 Complex (Q09028 whole entry partner): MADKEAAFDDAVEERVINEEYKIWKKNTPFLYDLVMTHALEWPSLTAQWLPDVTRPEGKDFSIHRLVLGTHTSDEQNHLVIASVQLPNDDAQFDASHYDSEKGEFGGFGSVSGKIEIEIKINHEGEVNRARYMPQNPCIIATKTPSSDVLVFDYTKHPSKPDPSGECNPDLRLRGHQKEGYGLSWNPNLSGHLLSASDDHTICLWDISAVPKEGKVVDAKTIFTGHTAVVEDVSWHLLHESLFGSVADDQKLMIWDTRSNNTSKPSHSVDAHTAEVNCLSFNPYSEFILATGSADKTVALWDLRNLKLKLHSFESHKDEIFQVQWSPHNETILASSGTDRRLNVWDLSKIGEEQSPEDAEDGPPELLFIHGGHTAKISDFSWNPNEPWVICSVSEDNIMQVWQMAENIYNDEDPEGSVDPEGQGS
Sequence of EZH1 Complex (Q6ZN18 whole entry partner): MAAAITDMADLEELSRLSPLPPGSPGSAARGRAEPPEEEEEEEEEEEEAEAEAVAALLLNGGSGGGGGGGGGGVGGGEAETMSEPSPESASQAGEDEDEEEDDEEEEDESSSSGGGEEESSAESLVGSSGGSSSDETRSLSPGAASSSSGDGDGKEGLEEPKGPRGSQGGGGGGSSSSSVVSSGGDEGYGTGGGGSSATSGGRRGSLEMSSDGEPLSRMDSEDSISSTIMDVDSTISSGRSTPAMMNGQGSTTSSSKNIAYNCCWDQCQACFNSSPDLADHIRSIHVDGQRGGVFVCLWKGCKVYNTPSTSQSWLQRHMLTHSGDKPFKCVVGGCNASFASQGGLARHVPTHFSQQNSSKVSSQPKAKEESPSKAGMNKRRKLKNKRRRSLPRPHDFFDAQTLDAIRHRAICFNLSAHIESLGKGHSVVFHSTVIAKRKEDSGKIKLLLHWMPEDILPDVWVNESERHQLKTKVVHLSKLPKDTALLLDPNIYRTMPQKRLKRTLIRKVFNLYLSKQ

CN1C(=O)[C@@]23C[C@](C)(C#N)[C@H](c4ccc5c(c4)OCO5)N2C(=O)[C@]1(C)SS3 (racemic) [ETP69, Rac-(3S,6S,7S,8aS)-6-(benzo[d][1,3]dioxol-5-yl)-2,3,7-trimethyl-1,4-dioxohexahydro-6H-3,8a-epidithiopyrrolo[1,2-a]pyrazine-7-carbonitrile]
remaining activity at 20 µM [1, 8]: 92.3%
remaining activity at 20 µM [1, 9]: 92.6%
Enzyme % Activity (relative to DMSO controls) Data 1 [2, 10]: 10.33%
Enzyme % Activity (relative to DMSO controls) Data 2 [2, 10]: 10.21%
inhibition relative to DMSO controls ([2]; summary of Table 1): at least 7500
remaining activity at 20 µM [3, 8]: 90.5%
remaining activity at 20 µM [3, 9]: 94.6%
Enzyme % Activity (relative to DMSO controls) Data 1 [4]: 103.44%
Enzyme % Activity (relative to DMSO controls) Data 2 [4]: 104.86%
percent alternation ([5]; AD+ mice vs AD+ DMSO): significant increase
number of total entries (locomotor activity) ([5]; wildtype and AD+ mice): decreased
remaining activity at 20 µM [6, 8]: 128%
remaining activity at 20 µM [6, 9]: 129%
remaining activity at 20 µM [7, 8]: 91.5%
remaining activity at 20 µM [7, 9]: 90%
